Our source for the IC50 values is patent US10577363B2, “Substituted piperidine compounds” (EPIZYME, INC., priority 2014, dated 2020).

Like-named read-outs stand apart in the source and are kept apart here. A value given as a limit tells only on which side of the number the result lay.

For the assay, the target named is SMYD3 (Homo sapiens (Human), UniProt Q9H7B4). Kind of assay: SMYD3 biochemical assay (SPA, 3H-SAM methylation of MEKK2 protein substrate). To be noted: read-out: SMYD3 Biochem IC50. In a few lines: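 SPA methyltransferase format: tag-cleaved human SMYD3, insect-cell GST-MEKK2 protein substrate, 3H-SAM donor, 30 min RT enzyme–compound preincubation, 100 uM cold SAM quench.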

The mark [1] stands for this setting: Table 1A, IC50 values are an average of n = 1 to n = 50.

In general, IC50 refers to the concentration at which inhibition is half-maximal. With `O=C(N[C@H]1C[C@H]2CC[C@@H](C1)N2S(=O)(=O)c1cc2oc(=O)[nH]c2cc1Cl)c1cc(C2CC2)on1` [compound 492, N-((1R,3r,5S)-8-((5-chloro-2-oxo-2,3-dihydrobenzo[d]oxazol-6-yl)sulfonyl)-8-azabicyclo[3.2.1]octan-3-yl)-5-cyclopropylisoxazole-3-carboxamide], the IC50 under setting [1] was more than 10000 nM.

In the case of `C[C@@H]1C[C@@H](NC(=O)c2cc(C3CC3)on2)CCN1S(=O)(=O)c1ccc(N(C)CCN)nc1` [compound 508, N-((2R,4S)-1-((6-((2-aminoethyl)(methyl)amino)pyridin-3-yl)sulfonyl)-2-methylpiperidin-4-yl)-5-cyclopropylisoxazole-3-carboxamide], the IC50 under setting [1] turned out to be 320 nM.

With `C[C@H]1C[C@@H](NC(=O)c2cc(C3CC3)on2)CCN1S(=O)(=O)c1ccc(NCCN)nc1` [compound 509, N-((2S,4S)-1-((6-((2-aminoethyl)amino)pyridin-3-yl)sulfonyl)-2-methylpiperidin-4-yl)-5-cyclopropylisoxazole-3-carboxamide], under setting [1], the IC50 was found to be 5.92 nM.

On to `CC(C)CN(C)c1cc(S(=O)(=O)N2CC[C@H](NC(=O)c3cc(C4CC4)on3)C[C@@H]2C)ccn1` [compound 510, 5-cyclopropyl-N-((2S,4S)-1-((2-(isobutyl(methyl)amino)pyridin-4-yl)sulfonyl)-2-methylpiperidin-4-yl)isoxazole-3-carboxamide], for which the IC50 under setting [1] was more than 10000 nM.

As to `CC(C)CN(C)c1cc(S(=O)(=O)N2CC[C@@H](NC(=O)c3cc(C4CC4)on3)C[C@@H]2C)ccn1` [compound 511, 5-cyclopropyl-N-((2S,4R)-1-((2-(isobutyl(methyl)amino)pyridin-4-yl)sulfonyl)-2-methylpiperidin-4-yl)isoxazole-3-carboxamide], the IC50 under setting [1] is more than 10000 nM.

For the molecule `C[C@@H]1C[C@@H](NC(=O)c2cc(C3CC3)on2)CCN1S(=O)(=O)c1ccnc(N(C)CCN)c1` [compound 512, N-((2R,4S)-1-((2-((2-aminoethyl)(methyl)amino)pyridin-4-yl)sulfonyl)-2-methylpiperidin-4-yl)-5-cyclopropylisoxazole-3-carboxamide], the IC50 under setting [1] was 487 nM.

For the molecule `C[C@H]1C[C@@H](NC(=O)c2cc(C3CC3)on2)CCN1S(=O)(=O)c1ccc(C#N)nc1` [compound 513, N-((2S,4S)-1-((6-cyanopyridin-3-yl)sulfonyl)-2-methylpiperidin-4-yl)-5-cyclopropylisoxazole-3-carboxamide], the IC50 under setting [1] turned out to be 1090 nM.

As to `CC(C)CN(C)c1ccc(S(=O)(=O)N2C3CCCC2CC(NC(=O)c2cc(C4CC4)on2)C3)cn1` (stereo not drawn) [compound 514, 5-cyclopropyl-N-(9-((6-(isobutyl(methyl)amino)pyridin-3-yl)sulfonyl)-9-azabicyclo[3.3.1]nonan-3-yl)isoxazole-3-carboxamide], the IC50 was more than 10000 nM.

As for `NCCNc1ccc(S(=O)(=O)N2C3CCCC2CC(NC(=O)c2cc(C4CC4)on2)C3)cn1` (stereo not drawn) [compound 515, N-(9-((6-((2-aminoethyl)amino)pyridin-3-yl)sulfonyl)-9-azabicyclo[3.3.1]nonan-3-yl)-5-cyclopropylisoxazole-3-carboxamide], the half-inhibitory concentration (IC50) was 17.6 nM.

As for `NCCCNc1ccc(S(=O)(=O)N2C3CCCC2CC(NC(=O)c2cc(C4CC4)on2)C3)cn1` (stereo not drawn) [compound 516, N-(9-((6-((3-aminopropyl)amino)pyridin-3-yl)sulfonyl)-9-azabicyclo[3.3.1]nonan-3-yl)-5-cyclopropylisoxazole-3-carboxamide], the IC50 was 74.2 nM.

For the molecule `CN(CCCN)c1ccc(S(=O)(=O)N2C3CCCC2CC(NC(=O)c2cc(C4CC4)on2)C3)cn1` (stereo not drawn) [compound 517, N-(9-((6-((3-aminopropyl)(methyl)amino)pyridin-3-yl)sulfonyl)-9-azabicyclo[3.3.1]nonan-3-yl)-5-cyclopropylisoxazole-3-carboxamide], the IC50 was found to be 80.3 nM.

`CCN(CC)S(=O)(=O)N1CC[C@H](NC(=O)c2cc(C3CC3)on2)C[C@@H]1C` [compound 518, 5-cyclopropyl-N-((2S,4S)-1-(N,N-diethylsulfamoyl)-2-methylpiperidin-4-yl)isoxazole-3-carboxamide]: the IC50 under setting [1] was found to be 3720 nM.

Regarding `C[C@H]1C[C@@H](NC(=O)c2cc(C3CC3)on2)CCN1S(=O)(=O)c1cccc(C(F)(F)F)n1` [compound 519, 5-cyclopropyl-N-((2S,4S)-2-methyl-1-((6-(trifluoromethyl)pyridin-2-yl)sulfonyl)piperidin-4-yl)isoxazole-3-carboxamide], under setting [1], the IC50 worked out at 204 nM.

Take `C[C@H]1C[C@@H](NC(=O)c2cc(C3CC3)on2)CCN1S(=O)(=O)c1cccc(NCCCN)n1` [compound 520, N-((2S,4S)-1-((6-((3-aminopropyl)amino)pyridin-2-yl)sulfonyl)-2-methylpiperidin-4-yl)-5-cyclopropylisoxazole-3-carboxamide]: the half-inhibitory concentration (IC50) under setting [1] was 50.1 nM.

For `C[C@H]1C[C@@H](NC(=O)c2cc(C3CC3)on2)CCN1S(=O)(=O)c1cccc(N(C)CCN2CCOCC2)n1` [compound 521, 5-cyclopropyl-N-((2S,4S)-2-methyl-1-((6-(methyl(2-morpholinoethyl)amino)pyridin-2-yl)sulfonyl)piperidin-4-yl)isoxazole-3-carboxamide], the IC50 under setting [1] came to 4500 nM.

`C[C@H]1C[C@@H](NC(=O)c2cc(C3CC3)on2)CCN1S(=O)(=O)c1ccc(N)nc1` [compound 522, N-((2S,4S)-1-((6-aminopyridin-3-yl)sulfonyl)-2-methylpiperidin-4-yl)-5-cyclopropylisoxazole-3-carboxamide]: under setting [1], the IC50 was 407 nM.

On to `C[C@H]1C[C@@H](NC(=O)c2cc(C3CC3)on2)CCN1S(=O)(=O)c1cccnc1N` [compound 523, N-((2S,4S)-1-((2-aminopyridin-3-yl)sulfonyl)-2-methylpiperidin-4-yl)-5-cyclopropylisoxazole-3-carboxamide], for which the IC50 under setting [1] came out at 1080 nM.

For the molecule `CNc1ncccc1S(=O)(=O)N1C2CCCC1CC(NC(=O)c1cc(C3CC3)on1)C2` (stereo not drawn) [compound 524, 5-cyclopropyl-N-(9-((2-(methylamino)pyridin-3-yl)sulfonyl)-9-azabicyclo[3.3.1]nonan-3-yl)isoxazole-3-carboxamide], the IC50 was 1850 nM.

Regarding `CNCCCCS(=O)(=O)N1CC[C@H](NC(=O)c2cc(C3CC3)on2)C[C@@H]1C` [compound 561, 5-cyclopropyl-N-((2S,4S)-2-methyl-1-((4-(methylamino)butyl)sulfonyl)piperidin-4-yl)isoxazole-3-carboxamide], under “Table 2A”, the IC50 was found to be 5.1 nM.

Turning to `COCCN(C)CCCS(=O)(=O)N1[C@@H]2CC[C@H]1C[C@@H](NC(=O)c1cc(C3CC3)on1)C2` [compound 665, 5-cyclopropyl-N-((1R,3r,5S)-8-((3-((2-methoxyethyl)(methyl)amino)propyl)sulfonyl)-8-azabicyclo[3.2.1]octan-3-yl)isoxazole-3-carboxamide], the 50% inhibitory concentration (IC50) (average of n = 1 to n = 50) is 86.8 nM.

Take `C[C@@H]1C[C@@H](NC(=O)c2cc(C3CC3)on2)CCN1S(=O)(=O)C(CCN)c1ccccc1` (stereo partly drawn) [compound 704, N-((2R,4S)-1-((3-amino-1-phenylpropyl)sulfonyl)-2-methylpiperidin-4-yl)-5-cyclopropylisoxazole-3-carboxamide]: the IC50 (average of n = 1 to n = 50) came out at 218 nM.
